Where two headings read alike, the source gives them in different places.
Key:
Type in all cases: cell-based
[1] = tested on: Pseudomonas aeruginosa (L); experiment: MBC (minimum bactericidal concentration) test in Wash NEXT reagent
[2] = tested on: Pseudomonas fluorescens (D); experiment: as above
Ralstonia pickettii (AU) = tested on: Ralstonia pickettii (AU)
Method: The stock organisms were thawed and subbed prior to beginning the MBC test. Molds were subbed to SDA plates one week before, and the bacteria were subbed to TAT agar plates 24 hours prior to the start of the test. All plates were incubated at 32 degrees C.
Each bacterial organism was inoculated into 40 ml sterile saline in a centrifuge tube to create a density of MacFarland #1. Two serial dilutions of 1:100 were then made, resulting in 10^−2 and 10^−4 concentrations. Each dilution was vortexed before it was sampled, and sterile Eppendorf pipette tips were used to make each transfer. The 10^−4 dilution was spiral plated to yield the initial inoculum concentration.
MBC trays were set up with the prepared test reagent. Using a Matrix pipettor, 100 μl aliquots of reagent were distributed into the wells, diluting the amount of preservative from 100% to 10% increments, using unpreserved reagent as the diluent. In one row, 100% non-preserved reagent acted as a positive control and served as a benchmark for a full mat of growth. In well #12H, 100 μl unpreserved reagent was pipetted, and this well was not inoculated with organisms, as it served as the negative control. Once all of the trays were prepared, the prepared bacteria/mold suspensions were poured into the MBC inoculating trays. These were placed onto the reagent trays, and 0.01 ml inoculum was introduced into the 100 μl of reagent in each well.
This was done by dipping a sterile cotton swab into each well, and absorbing all of the liquid in the well. The swab was rolled onto a TAT agar plate ensuring that the entire swab touches the agar. Plates ware incubated at 32 degrees C. for 48 hours to 7 days, depending on the organism. Observations for growth were performed by a scoring matrix using + for a full mat, +/− for some growth, a numerical value for an actual colony count, and—for no growth.
Below are tables that contain the data obtained in Example 1. The MBC test is scored by (+) indicating a full grown mat of organisms, equivalent to the organisms in the unpreserved reagent. (+/−) indicates there is some kill evident disturbing that mat or bringing the quantities down to an almost countable level. An actual number is the actual number of colonies growing at that concentration of preservative. (−) indicates no growth found. The MBC trays were stored at room temperature for the entire test.
The materials and methods and analysis of the MBC test were the same as in Example 1.

Cc1cc(NS(=O)(=O)c2ccc(N)cc2)no1 [Sulfamethoxazole, sulfamethoxazole]
MBC test growth score ([1]; 10% preservative, 8 hour): +
MBC test growth score ([1]; 10% preservative, 24 hour): +
MBC test growth score ([1]; 10% preservative, 48 hour): +
MBC test growth score ([1]; 10% preservative, 72 hour): +
MBC test growth score ([1]; 20% preservative, 8 hour): +
MBC test growth score ([1]; 20% preservative, 24 hour): +
MBC test growth score ([1]; 20% preservative, 48 hour): +
MBC test growth score ([1]; 20% preservative, 72 hour): +
MBC test growth score ([1]; 30% preservative, 8 hour): +
MBC test growth score ([1]; 30% preservative, 24 hour): +
MBC test growth score ([1]; 30% preservative, 48 hour): +
MBC test growth score ([1]; 30% preservative, 72 hour): +
MBC test growth score ([1]; 40% preservative, 8 hour): +
MBC test growth score ([1]; 40% preservative, 24 hour): +
MBC test growth score ([1]; 40% preservative, 48 hour): +
MBC test growth score ([1]; 40% preservative, 72 hour): +
MBC test growth score ([1]; 50% preservative, 8 hour): +
MBC test growth score ([1]; 50% preservative, 24 hour): +
MBC test growth score ([1]; 50% preservative, 48 hour): +
MBC test growth score ([1]; 50% preservative, 72 hour): +
MBC test growth score ([1]; 60% preservative, 8 hour): +
MBC test growth score ([1]; 60% preservative, 24 hour): +
MBC test growth score ([1]; 60% preservative, 48 hour): +
MBC test growth score ([1]; 60% preservative, 72 hour): +
MBC test growth score ([1]; 70% preservative, 8 hour): +
MBC test growth score ([1]; 70% preservative, 24 hour): +
MBC test growth score ([1]; 70% preservative, 48 hour): +
MBC test growth score ([1]; 70% preservative, 72 hour): +
MBC test growth score ([1]; 80% preservative, 8 hour): +
MBC test growth score ([1]; 80% preservative, 24 hour): +
MBC test growth score ([1]; 80% preservative, 48 hour): +
MBC test growth score ([1]; 80% preservative, 72 hour): +
MBC test growth score ([1]; 90% preservative, 8 hour): +
MBC test growth score ([1]; 90% preservative, 24 hour): +
MBC test growth score ([1]; 90% preservative, 48 hour): +
MBC test growth score ([1]; 90% preservative, 72 hour): +
MBC test growth score ([1]; 100% preservative, 8 hour): +
MBC test growth score ([1]; 100% preservative, 24 hour): +
MBC test growth score ([1]; 100% preservative, 48 hour): +
MBC test growth score ([1]; 100% preservative, 72 hour): +
MBC test growth score ([2]; 10% preservative, 8 hour): +
MBC test growth score ([2]; 10% preservative, 24 hour): +
MBC test growth score ([2]; 10% preservative, 48 hour): +/−
MBC test growth score ([2]; 10% preservative, 72 hour): +/−
MBC test growth score ([2]; 20% preservative, 8 hour): +
MBC test growth score ([2]; 20% preservative, 24 hour): +
MBC test growth score ([2]; 20% preservative, 48 hour): +/−
MBC test growth score ([2]; 20% preservative, 72 hour): +/−
MBC test growth score ([2]; 30% preservative, 8 hour): +
MBC test growth score ([2]; 30% preservative, 24 hour): +
MBC test growth score ([2]; 30% preservative, 48 hour): +
MBC test growth score ([2]; 30% preservative, 72 hour): +/−
MBC test growth score ([2]; 40% preservative, 8 hour): +
MBC test growth score ([2]; 40% preservative, 24 hour): +
MBC test growth score ([2]; 40% preservative, 48 hour): +
MBC test growth score ([2]; 40% preservative, 72 hour): +/−
MBC test growth score ([2]; 50% preservative, 8 hour): +
MBC test growth score ([2]; 50% preservative, 24 hour): +
MBC test growth score ([2]; 50% preservative, 48 hour): +
MBC test growth score ([2]; 50% preservative, 72 hour): +/−
MBC test growth score ([2]; 60% preservative, 8 hour): +
MBC test growth score ([2]; 60% preservative, 24 hour): +
MBC test growth score ([2]; 60% preservative, 48 hour): +
MBC test growth score ([2]; 60% preservative, 72 hour): +/−
MBC test growth score ([2]; 70% preservative, 8 hour): +
MBC test growth score ([2]; 70% preservative, 24 hour): +
MBC test growth score ([2]; 70% preservative, 48 hour): +
MBC test growth score ([2]; 70% preservative, 72 hour): +/−
MBC test growth score ([2]; 80% preservative, 8 hour): +
MBC test growth score ([2]; 80% preservative, 24 hour): +
MBC test growth score ([2]; 80% preservative, 48 hour): +
MBC test growth score ([2]; 80% preservative, 72 hour): +/−
MBC test growth score ([2]; 90% preservative, 8 hour): +
MBC test growth score ([2]; 90% preservative, 24 hour): +
MBC test growth score ([2]; 90% preservative, 48 hour): +
MBC test growth score ([2]; 90% preservative, 72 hour): +/−
MBC test growth score ([2]; 100% preservative, 8 hour): +
MBC test growth score ([2]; 100% preservative, 24 hour): +
MBC test growth score ([2]; 100% preservative, 48 hour): +
MBC test growth score ([2]; 100% preservative, 72 hour): +/−
MBC test growth score (Ralstonia pickettii (AU); 10% preservative, 8 hour): +
MBC test growth score (Ralstonia pickettii (AU); 10% preservative, 24 hour): +
MBC test growth score (Ralstonia pickettii (AU); 10% preservative, 48 hour): +
MBC test growth score (Ralstonia pickettii (AU); 10% preservative, 72 hour): +
MBC test growth score (Ralstonia pickettii (AU); 20% preservative, 8 hour): +
MBC test growth score (Ralstonia pickettii (AU); 20% preservative, 24 hour): +
MBC test growth score (Ralstonia pickettii (AU); 20% preservative, 48 hour): +
MBC test growth score (Ralstonia pickettii (AU); 20% preservative, 72 hour): +
MBC test growth score (Ralstonia pickettii (AU); 30% preservative, 8 hour): +
MBC test growth score (Ralstonia pickettii (AU); 30% preservative, 24 hour): +
MBC test growth score (Ralstonia pickettii (AU); 30% preservative, 48 hour): +
MBC test growth score (Ralstonia pickettii (AU); 30% preservative, 72 hour): +
MBC test growth score (Ralstonia pickettii (AU); 40% preservative, 8 hour): +
MBC test growth score (Ralstonia pickettii (AU); 40% preservative, 24 hour): +
MBC test growth score (Ralstonia pickettii (AU); 40% preservative, 48 hour): +
MBC test growth score (Ralstonia pickettii (AU); 40% preservative, 72 hour): +
MBC test growth score (Ralstonia pickettii (AU); 50% preservative, 8 hour): +
MBC test growth score (Ralstonia pickettii (AU); 50% preservative, 24 hour): +
MBC test growth score (Ralstonia pickettii (AU); 50% preservative, 48 hour): +
MBC test growth score (Ralstonia pickettii (AU); 50% preservative, 72 hour): +
MBC test growth score (Ralstonia pickettii (AU); 60% preservative, 8 hour): +
MBC test growth score (Ralstonia pickettii (AU); 60% preservative, 24 hour): +
MBC test growth score (Ralstonia pickettii (AU); 60% preservative, 48 hour): +
MBC test growth score (Ralstonia pickettii (AU); 60% preservative, 72 hour): +
MBC test growth score (Ralstonia pickettii (AU); 70% preservative, 8 hour): +
MBC test growth score (Ralstonia pickettii (AU); 70% preservative, 24 hour): +
MBC test growth score (Ralstonia pickettii (AU); 70% preservative, 48 hour): +
MBC test growth score (Ralstonia pickettii (AU); 70% preservative, 72 hour): +
MBC test growth score (Ralstonia pickettii (AU); 80% preservative, 8 hour): +
MBC test growth score (Ralstonia pickettii (AU); 80% preservative, 24 hour): +
MBC test growth score (Ralstonia pickettii (AU); 80% preservative, 48 hour): +
MBC test growth score (Ralstonia pickettii (AU); 80% preservative, 72 hour): +
MBC test growth score (Ralstonia pickettii (AU); 90% preservative, 8 hour): +
MBC test growth score (Ralstonia pickettii (AU); 90% preservative, 24 hour): +
MBC test growth score (Ralstonia pickettii (AU); 90% preservative, 48 hour): +
MBC test growth score (Ralstonia pickettii (AU); 90% preservative, 72 hour): +
MBC test growth score (Ralstonia pickettii (AU); 100% preservative, 8 hour): +
MBC test growth score (Ralstonia pickettii (AU); 100% preservative, 24 hour): +
MBC test growth score (Ralstonia pickettii (AU); 100% preservative, 48 hour): +
MBC test growth score (Ralstonia pickettii (AU); 100% preservative, 72 hour): +
